US20210002182A1, “NOVEL PHOSPHATIC FERTILIZERS BASED ON ALKANOLAMINE SALTS OF PHOSPHORIC ACID” (Yara UK Limited, priority 2017, published 2021)

Key:
radish test crop = experiment: Glasshouse crop safety trial, foliar spraying; assay type: in vivo; settings: foliar spraying at 5 leaf stage, 3.4 kg P2O5 per ha in 200 litres/ha water, assessed seven days after spraying
Protocol: Glasshouse trials were carried out in order to assess crop safety of the composition described above. The trials were carried out using a radish test crop grown in pots in a sand medium and fed via a nutrient solution. A randomised block design using 4 replicates was employed. The product was applied by foliar spraying at the 5 leaf growth stage using a rate equivalent to 10 kg/ha in 200 litres/ha water (equating to an input of 3.4 kg P2O5 per ha). […] The crop was assessed for symptoms of phytotoxicity seven days after spraying.

[1] = 75 weight % phosphoric acid; cited from earlier work

**Q.** What does the source list for `O=P(O)(O)O` [phosphoric acid]?
**A.** Symptoms of phytotoxicity (crop damage) (radish test crop): signs of crop damage (leaf burn); Freezing point [1]: −20 °C
